Laboratory results reported in patent US20210214303A1, “SCORPION VENOM BENZOQUINONE DERIVATIVES AND USES THEREOF” (priority 2018, published 2021).
In brackets after ≈: the same amount, converted by molar mass. Entries after “also recorded” stand apart in the source; their conditions may differ.

Assays:
[1] = system: Mycobacterium tuberculosis multi-drug resistant (MDR) strain; experiment: microbe, parasite or virus in culture; format: cell-based
[2] = system: Mycobacterium tuberculosis Multi-Drug-Resistance (MDR) CIBIN99 strain; experiment: experimental model of progressive pulmonary tuberculosis; parameters: species or system BALB/c mice; details: mouse, in vivo

| SMILES | MIC [1] [µg/mL] | condition of infected mice / overall effect [2] | reduction of pneumonia (automated histomorphometry, lung surface affected by pneumonia) [2] [%] | tissue damage (pneumonia), histology [2] |
| --- | --- | --- | --- | --- |
| COC1=CC(=O)C(SC)=C(SC)C1=O [blue 1,4 benzoquinone, 5-methoxy-2,3-bis(methylthio)cyclohexa-2,5-diene-1,4-dione] | 4 (≈ 17.4 µM) | effective in vivo; also recorded: improvement by not losing weight and not showing piloerection; also recorded: marked improvement in their condition | 50 | less pneumonia; also recorded: clear decrease in tissue damage; also recorded: twofold decrease |
| COC1=CC(=O)C(SC)=C(OC)C1=O [red 1,4 benzoquinone, 3,5-dimethoxy-2-(methylthio)cyclohexa-2,5-diene-1,4-dione] | > 160 | – | – | – |
